US20100216827A1 (Metabolex, Inc., priority 2008, published 2010)
Read-outs that look alike come from different tables or passages of the source.

Biological target: T1, human GPR120 (Homo sapiens, UniProt Q5NUL3)
T1 construct: host or cells: HEK293 cells coexpressing Gqi5
T1 sequence (Q5NUL3 1-361): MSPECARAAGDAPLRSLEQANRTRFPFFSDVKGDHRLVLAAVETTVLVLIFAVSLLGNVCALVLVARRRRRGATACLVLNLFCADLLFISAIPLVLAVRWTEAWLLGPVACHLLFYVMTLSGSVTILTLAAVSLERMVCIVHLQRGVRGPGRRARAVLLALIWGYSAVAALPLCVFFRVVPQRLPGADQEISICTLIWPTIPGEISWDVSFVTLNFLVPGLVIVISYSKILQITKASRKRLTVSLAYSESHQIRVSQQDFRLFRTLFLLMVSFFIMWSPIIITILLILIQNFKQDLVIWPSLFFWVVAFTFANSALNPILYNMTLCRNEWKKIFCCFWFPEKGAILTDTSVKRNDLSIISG
Assay: Intracellular Ca2+ (FLIPR Calcium 4, Flexstation) assay in human GPR120 stable HEK293 cell line coexpressing Gqi5
Format: cell-based
Conditions: for % Activity at 5 μM: 5 μM compound compared to the maximal activity of GW9508 at 6.7 μM (100%); for EC50: human GPR120 stably expressing cells, 8 concentrations 0.00001 to 20 μM
Experimental: Human GPR120 stable cell line was purchased from Multispan Inc (26219 Eden Landing Road, Hayward, Calif. 94545). This GPR120 cell line was generated in HEK293 cells coexpressing Gqi5. In this cell line, the Flag epitope tag (DYKDDDDK) was fused to the amino terminus of human GPR120 protein.
The concentration of intracellular Ca^2+ was measured as described below. Human GPR120 cells were plated in 96 well plates (Poly-D-Lysine coated black/clear Plate, Greiner Bio-One) at 70,000 cells per well and cultured overnight in conditions of 37° C. and 5% CO2. A Ca^2+ assay dye stock solution was prepared by adding 10 mL of assay buffer (HBSS/20 mM HEPES, pH 7.4) to FLIPR Calcium 4 Assay Bulk Kit (Molecular Devices). The 10 mL of Ca^2+ assay dye solution was prepared by further diluting 0.5 mL of Ca^2+ assay dye stock solution with 10 mL of assay buffer. The medium of the cells was removed and immediately 100 μl of the Ca^2+ assay dye solution was dispensed into each well followed by incubation at 37° C. and 5% CO2 for 50 minutes to incorporate the Ca^2+ dye into the cells. The cell plate was then placed in the Flexstation (Molecular Devices) for 20 minutes at 37° C. Compounds were dissolved in 100% DMSO and diluted to desired concentrations with assay buffer and placed in Flexstation simultaneously with the cell plate for 20 minute incubation at 37° C. prior to reading. Fluorescence intensity was measured immediately following compound addition (25 μl/well) on the Flexstation at an excitation wavelength of 485 nm and an emission wavelength of 525 with 515 nm auto cutoff. The resulting increase in fluorescence intensities corresponds to increases in intracellular Ca^2+ levels.
Compounds were dissolved in 100% DMSO to a concentration of 20 mM to provide stock solutions. To determine activity against human GPR120, compounds were added with human GPR120 stably expressing cells (described above), at 8 desired concentrations ranging from 0.00001 to 20 μM, in 96 well plates and fluorescence intensities were measured for 90 seconds with 2-second intervals. An EC50 value (concentration of the GPR120 agonist where 50% of the agonist's maximal activity is observed) was calculated using the changes (Max-Min) of fluorescent intensity.
To determine percent activity for a tested compound, the fluorescence intensity value obtained at a particular concentration were compared to the maximal fluorescence intensity value obtained for reference compound GW9508 (4-[[(3-phenoxyphenyl)methyl]amino]benzene propanoic acid; British Journal of Pharmacology 2006 148, 619-628) that acts as a full agonist of the GPR120 receptor. The maximal activity of GW9508 is designated as 100% activity. Typically, the GW9508 activity reached a maximum at a concentration of approximately 6.7 μM. Activities of compounds that were tested according to this method are shown in Table 1 below and are expressed as % activity at 5 μM compound compared to the maximal activity of GW9508 at 6.7 μM.

Row | SMILES | % Activity at 5 μM [%] | EC50 (read-out: EC50 ≦ 1 μM) [nM] | EC50 (read-out: EC50 between >1 μM and ≦10 μM) [nM]
1 | Cc1cc(COc2c(F)cc(COCC(=O)O)cc2F)n(-c2ccc(Cl)cc2)n1 [Example 35, 2-(4-((1-(4-chlorophenyl)-3-methyl-1H-pyrazol-5-yl)methoxy)-3,5-difluorobenzyloxy)acetic acid] | 86 | ≤ 1000 | 
2 | Cc1onc(-c2ccccc2)c1COc1c(F)cc(CC(C)C(=O)O)cc1F (centres unmarked) [Example 37, 3-(3,5-difluoro-4-((5-methyl-3-phenylisoxazol-4-yl)methoxy)phenyl)-2-methylpropanoic acid] | 94 | ≤ 1000 | 
3 | Cc1cc(COc2c(F)cc(CC(C)(C)C(=O)O)cc2F)n(-c2ccc(Cl)cc2)n1 [Example 38, 3-(4-((1-(4-chlorophenyl)-3-methyl-1H-pyrazol-5-yl)methoxy)-3,5-difluorophenyl)-2,2-dimethylpropanoic acid] | 100 |  | 1000 to 10000
4 | Cc1cc(COc2ccc3c(c2)CCC(CC(=O)O)C3)n(-c2ccc(Cl)cc2)n1 (centres unmarked) [Example 39, 2-(6-((1-(4-chlorophenyl)-3-methyl-1H-pyrazol-5-yl)methoxy)-1,2,3,4-tetrahydronaphthalen-2-yl)acetic acid] | 100 | ≤ 1000 | 
5 | Cc1onc(-c2ccccc2)c1COc1ccc2c(c1)CCC(CC(=O)O)C2 (centres unmarked) [Example 40, 2-(6-((5-methyl-3-phenylisoxazol-4-yl)methoxy)-1,2,3,4-tetrahydronaphthalen-2-yl)acetic acid] | 100 | ≤ 1000 | 
6 | Cc1cc(COc2c(F)cc(CCC(=O)O)cc2F)n(C(C)(C)C)n1 [Example 41, 3-(4-((1-tert-butyl-3-methyl-1H-pyrazol-5-yl)methoxy)-3,5-difluorophenyl)propanoic acid] | 50 | ≤ 1000 | 
7 | Cc1cc(COc2ccc(CCCC(=O)O)cc2)n(-c2ccccc2)n1 [Example 45, 4-(4-((3-methyl-1-phenyl-1H-pyrazol-5-yl)methoxy)phenyl)butanoic acid] | 61 | ≤ 1000 | 
8 | Cc1cc(COc2c(F)cc(CCC(=O)O)cc2F)n(-c2ccccc2)n1 [Example 46, 3-(3,5-difluoro-4-((3-methyl-1-phenyl-1H-pyrazol-5-yl)methoxy)phenyl)propanoic acid] | 62 | ≤ 1000 | 
9 | Cc1cc(COc2c(F)cc(CCC(=O)O)cc2F)n(-c2ccc(F)cc2)n1 [Example 47, 3-(3,5-difluoro-4-((1-(4-fluorophenyl)-3-methyl-1H-pyrazol-5-yl)methoxy)phenyl)propanoic acid] | 71 | ≤ 1000 | 
10 | O=C(O)CCc1cc(F)c(OCc2ccnn2-c2ccccc2)c(F)c1 [Example 48, 3-(3,5-difluoro-4-((1-phenyl-1H-pyrazol-5-yl)methoxy)phenyl)propanoic acid] | 73 | ≤ 1000 | 
11 | COc1ccc(-n2nc(C)cc2COc2c(F)cc(CCC(=O)O)cc2F)cc1 [Example 49, 3-(3,5-difluoro-4-((1-(4-methoxyphenyl)-3-methyl-1H-pyrazol-5-yl)methoxy)phenyl)propanoic acid] | 71 | ≤ 1000 | 
12 | Cc1cc(COc2c(F)cc(CCC(=O)O)cc2F)n(-c2ccc(Cl)cc2)n1 [Example 50, 3-(4-((1-(4-chlorophenyl)-3-methyl-1H-pyrazol-5-yl)methoxy)-3,5-difluorophenyl)propanoic acid] | 85 | ≤ 1000 | 
13 | Cc1cnn(-c2ccc(F)cc2)c1COc1c(F)cc(CCC(=O)O)cc1F [Example 51, 3-(3,5-difluoro-4-((1-(4-fluorophenyl)-4-methyl-1H-pyrazol-5-yl)methoxy)phenyl)propanoic acid] | 81 | ≤ 1000 | 
14 | O=C(O)C(F)(F)Cc1cc(F)c(OCc2snnc2-c2ccc(Cl)cc2)c(F)c1 [Example 52, 3-(4-((4-(4-chlorophenyl)-1,2,3-thiadiazol-5-yl)methoxy)-3,5-difluorophenyl)-2,2-difluoropropanoic acid] | 96 | ≤ 1000 | 
15 | Cc1cc(COc2c(F)cc(CCC(=O)O)cc2F)n(-c2ccc(F)c(F)c2)n1 [Example 53, 3-(4-((1-(3,4-difluorophenyl)-3-methyl-1H-pyrazol-5-yl)methoxy)-3,5-difluorophenyl)propanoic acid] | 84 | ≤ 1000 | 
16 | Cc1cc(COc2c(F)cc(CC(F)C(=O)O)cc2F)n(-c2ccc(Cl)cc2)n1 (centres unmarked) [Example 54, 3-(4-((1-(4-chlorophenyl)-3-methyl-1H-pyrazol-5-yl)methoxy)-3,5-difluorophenyl)-2-fluoropropanoic acid] | 48 | ≤ 1000 | 
17 | Cc1cc(COc2c(F)cc(CC3CC3C(=O)O)cc2F)n(-c2ccc(Cl)cc2)n1 (centres unmarked) [Example 55, 2-(4-((1-(4-chlorophenyl)-3-methyl-1H-pyrazol-5-yl)methoxy)-3,5-difluorobenzyl)cyclopropanecarboxylic acid] | 66 | ≤ 1000 | 
18 | O=C(O)CCc1cc(F)c(OCc2cc(C(F)(F)F)nn2-c2ccc(Cl)cc2)c(F)c1 [Example 56, 3-(4-((1-(4-chlorophenyl)-3-(trifluoromethyl)-1H-pyrazol-5-yl)methoxy)-3,5-difluorophenyl)propanoic acid] | 71 | ≤ 1000 | 
19 | O=C(O)C(F)(F)Cc1cc(F)c(OCc2cc(C(F)(F)F)nn2-c2ccc(Cl)cc2)c(F)c1 [Example 57, 3-(4-((1-(4-chlorophenyl)-3-(trifluoromethyl)-1H-pyrazol-5-yl)methoxy)-3,5-difluorophenyl)-2,2-difluoropropanoic acid] | 85 | ≤ 1000 | 
20 | Cc1onc(-c2ccccc2)c1COc1ccc2c(c1)CCC2CC(=O)O (centres unmarked) [Example 58, 2-(5-((5-methyl-3-phenylisoxazol-4-yl)methoxy)-2,3-dihydro-1H-inden-1-yl)acetic acid] | 66 | ≤ 1000 | 
21 | Cc1cc(COc2ccc3c(c2)CCC3CC(=O)O)n(-c2ccc(Cl)cc2)n1 (centres unmarked) [Example 59, 2-(5-((1-(4-chlorophenyl)-3-methyl-1H-pyrazol-5-yl)methoxy)-2,3-dihydro-1H-inden-1-yl)acetic acid] | 100 | ≤ 1000 | 
22 | O=C(O)CCc1cc(F)c(OCc2snnc2-c2ccc(Cl)cc2)c(F)c1 [Example 62, 3-(4-((4-(4-chlorophenyl)-1,2,3-thiadiazol-5-yl)methoxy)-3,5-difluorophenyl)propanoic acid] | 88 | ≤ 1000 | 
23 | O=C(O)C1CC1c1cc(F)c(OCc2snnc2-c2ccccc2)c(F)c1 (centres unmarked) [Example 63, 2-(3,5-difluoro-4-((4-phenyl-1,2,3-thiadiazol-5-yl)methoxy)phenyl)cyclopropane carboxylic acid] | 76 | ≤ 1000 | 
24 | Cc1cc(COc2c(F)cc(C3CC3C(=O)O)cc2F)n(-c2ccccc2)n1 (centres unmarked) [Example 64, 2-(3,5-difluoro-4-((3-methyl-1-phenyl-1H-pyrazol-5-yl)methoxy)phenyl)cyclopropane carboxylic acid] | 71 | ≤ 1000 | 
25 | O=C(O)CCc1cc(F)c(OCc2cc(C(F)(F)F)nn2-c2ccccc2)c(F)c1 [Example 65, 3-(3,5-difluoro-4-((1-phenyl-3-(trifluoromethyl)-1H-pyrazol-5-yl)methoxy)phenyl)propanoic acid] | 86 | ≤ 1000 | 
